Laboratory results: the supplement of paper PMC10307832

What was measured:
Test in all cases: relative viability (nuclei count vs DMSO), 5 days (fraction); higher = more cells survive
Cediranib + Alpelisib = compound: COc1cc2c(Oc3ccc4[nH]c(C)cc4c3F)ncnc2cc1OCCCN1CCCC1 [Cediranib] + Cc1nc(NC(=O)N2CCC[C@H]2C(N)=O)sc1-c1ccnc(C(C)(C)C(F)(F)F)c1 [Alpelisib] (partner 2 µM)
In short: (§1)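 After 5 days of treatment, lung cancer cells in 1536-well plates were fixed and stained in a single step (final 0.05% Triton X-100, 1% formaldehyde, 1 ug/ml Hoechst) and their nuclei counted on 4× images. Treatment had been applied by pin tool the day after seeding as one drug alone or as a fixed anchor-drug dose with five library-drug doses (not always all listed) in √10 steps. Relative viability is the nuclei count of treated wells divided by that of vehicle wells, and values are medians of duplicate plates.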

Decitabine + Lapatinib = compound: Nc1ncn([C@H]2C[C@H](O)[C@@H](CO)O2)c(=O)n1 [Decitabine] + CS(=O)(=O)CCNCc1ccc(-c2ccc3ncnc(Nc4ccc(OCc5cccc(F)c5)c(Cl)c4)c3c2)o1 [Lapatinib] (partner 2 µM)
In short: as §1

Decitabine + Pemetrexed = compound: Nc1ncn([C@H]2C[C@H](O)[C@@H](CO)O2)c(=O)n1 [Decitabine] + Nc1nc2[nH]cc(CCc3ccc(C(=O)N[C@@H](CCC(=O)O)C(=O)O)cc3)c2c(=O)[nH]1 [Pemetrexed] (partner 0.2 µM)
In short: as §1

Halofuginone + Olaparib = compound: O=C(C[C@H]1NCCC[C@@H]1O)Cn1cnc2cc(Br)c(Cl)cc2c1=O (racemic) [Halofuginone] + O=C(c1cc(Cc2n[nH]c(=O)c3ccccc23)ccc1F)N1CCN(C(=O)C2CC2)CC1 [Olaparib] (partner 8 µM)
In short: as §1

| Cell Line | relative viability (Cediranib + Alpelisib; first compound 0.04 µM) | relative viability (Cediranib + Alpelisib; first compound 0.1265 µM) | relative viability (Cediranib + Alpelisib; first compound 0.4 µM) | relative viability (Cediranib + Alpelisib; first compound 1.265 µM) | relative viability (Cediranib + Alpelisib; first compound 4 µM) | relative viability (Decitabine + Lapatinib; first compound 0.04 µM) | relative viability (Decitabine + Lapatinib; first compound 0.1265 µM) | relative viability (Decitabine + Lapatinib; first compound 0.4 µM) | relative viability (Decitabine + Lapatinib; first compound 1.265 µM) | relative viability (Decitabine + Lapatinib; first compound 4 µM) | relative viability (Decitabine + Pemetrexed; first compound 0.04 µM) | relative viability (Decitabine + Pemetrexed; first compound 0.1265 µM) | relative viability (Decitabine + Pemetrexed; first compound 0.4 µM) | relative viability (Decitabine + Pemetrexed; first compound 1.265 µM) | relative viability (Decitabine + Pemetrexed; first compound 4 µM) | relative viability (Halofuginone + Olaparib; first compound 0.001 µM) | relative viability (Halofuginone + Olaparib; first compound 0.003162 µM) | relative viability (Halofuginone + Olaparib; first compound 0.01 µM) | relative viability (Halofuginone + Olaparib; first compound 0.03162 µM) | relative viability (Halofuginone + Olaparib; first compound 0.1 µM) |
| --- | --- | --- | --- | --- | --- | --- | --- | --- | --- | --- | --- | --- | --- | --- | --- | --- | --- | --- | --- | --- |
| NCI-H2087 | 1.05 | 1.25 | 1.18 | 1.11 | 1.14 | 0.774 | 0.637 | 0.457 | 0.346 | 0.37 | 0.573 | 0.49 | 0.451 | 0.291 | 0.267 | 0.616 | 0.685 | 0.629 | 0.617 | 0.277 |
| NCI-H2126 | 0.776 | 0.796 | 0.732 | 0.662 | 0.781 | 0.749 | 0.781 | 0.472 | 0.564 | 0.544 | 0.68 | 0.648 | 0.391 | 0.453 | 0.341 | 0.893 | 0.863 | 0.882 | 0.901 | 0.916 |
| NCI-H2170 | 0.823 | 0.901 | 0.744 | 0.748 | 0.882 | 0.281 | 0.267 | 0.268 | 0.251 | 0.249 | 0.276 | 0.221 | 0.227 | 0.217 | 0.21 | 0.64 | 0.593 | 0.589 | 0.605 | 0.551 |
| NCI-H2228 | 0.955 | 0.85 | 0.791 | 0.929 | 0.826 | 0.595 | 0.727 | 0.489 | 0.282 | 0.209 | 0.232 | 0.208 | 0.179 | 0.166 | 0.163 | 0.669 | 0.627 | 0.461 | 0.184 | 0.124 |
| NCI-H2347 | 1.15 | 0.997 | 0.919 | 0.975 | 1.12 | 0.895 | 0.938 | 0.793 | 0.548 | 0.633 | 0.401 | 0.396 | 0.382 | 0.366 | 0.386 | 0.537 | 0.583 | 0.565 | 0.518 | 0.43 |
| NCI-H2405 | 0.815 | 1.07 | 0.631 | 0.77 | 0.758 | 0.942 | 0.904 | 0.679 | 0.553 | 0.434 | 0.851 | 0.998 | 0.787 | 0.632 | 0.524 | 0.934 | 0.864 | 0.826 | 0.795 | 0.66 |
| NCI-H3122 | 0.894 | 1.06 | 0.731 | 0.852 | 0.906 | 1.05 | 1.03 | 1.02 | 0.816 | 0.783 | 0.182 | 0.179 | 0.121 | 0.159 | 0.185 | 0.654 | 0.618 | 0.642 | 0.692 | 0.686 |
| PC-3 [JPC-3] | 0.953 | 0.976 | 0.998 | 1.02 | 0.97 |  | 0.467 | 0.269 | 0.421 | 0.383 |  | 0.845 | 0.439 | 0.528 | 0.586 | 1.19 | 1.12 | 1.15 | 1.15 | 0.948 |
| PC-14 | 0.96 | 1 | 0.906 | 0.965 | 0.986 |  | 0.297 | 0.196 | 0.226 | 0.228 | 0.123 | 0.0812 | 0.0659 | 0.0902 | 0.0856 | 0.383 | 0.333 | 0.406 | 0.218 | 0.0499 |
| RERF-LC-KJ | 0.771 |  | 0.769 | 0.761 | 0.739 | 0.804 | 0.894 | 0.704 | 0.717 | 0.656 | 0.441 | 0.403 | 0.215 | 0.401 | 0.369 | 1.19 | 0.983 | 0.884 | 0.959 | 0.632 |
| SK-LU-1 | 0.753 | 1.2 | 0.958 | 0.933 | 1.01 | 0.66 | 0.604 | 0.42 | 0.457 | 0.38 | 0.826 | 0.754 | 0.406 | 0.513 | 0.49 | 0.488 | 0.444 | 0.477 | 0.454 | 0.312 |
| SK-MES-1 | 0.835 | 0.916 | 0.8 | 0.924 | 1.02 | 0.463 | 0.49 | 0.406 | 0.383 | 0.286 | 0.828 | 0.682 | 0.458 | 0.343 | 0.338 | 0.768 | 0.69 | 0.713 | 0.345 | 0.174 |
| SW 1573 | 0.586 | 0.834 | 0.655 | 0.619 | 0.79 | 1.03 | 0.993 | 1.05 | 0.646 | 0.515 | 0.812 | 0.844 | 0.87 | 0.494 | 0.323 | 0.496 | 0.422 | 0.526 | 0.232 | 0.138 |
